melting point	Structure (SMILES)
152 to 154 °C	CC(C)(F)CC[C@H](C[C@H](O)[C@H](Cc1ccccc1)NC(=O)c1cnc2ccccc2n1)C(=O)NCCc1cccs1 [Example 229, Quinoxaline-2-carboxylic acid [1(S)-benzyl-7-fluoro-2(S)-hydroxy-7-methyl-4(R)-(2-thiophen-2-yl-ethylcarbamoyl)-octyl]-amide]
107 to 108 °C	CC(C)(F)CC[C@H](C[C@H](O)[C@H](Cc1ccccc1)NC(=O)c1cnc2ccccc2n1)C(=O)NCCc1c[nH]c2ccccc12 [Example 230, Quinoxaline-2-carboxylic acid {1(S)-benzyl-7-fluoro-2(S)-hydroxy-4(R)-[2-(1H-indol-3-yl)-ethylcarbamoyl]-7-methyl-octyl}-amide]
109 to 112 °C	COc1cc(CCNC(=O)[C@H](CCC(C)(C)F)C[C@H](O)[C@H](Cc2ccccc2)NC(=O)c2cnc3ccccc3n2)cc(OC)c1 [Example 232, Quinoxaline-2-carboxylic acid {1(S)-benzyl-4(R)-[2-(3,5-dimethoxy-phenyl)-ethylcarbamoyl]-7-fluoro-2(S)-hydroxy-7-methyl-octyl}-amide]
155.5 to 156.5 °C	CC(C)(F)CC[C@H](C[C@H](O)[C@H](Cc1ccccc1)NC(=O)c1cnc2ccccc2n1)C(=O)NCc1ccco1 [Example 234, Quinoxaline-2-carboxylic acid {1(S)-benzyl-7-fluoro-4(R)-[(furan-2-ylmethyl)-carbamoyl]-2(S)-hydroxy-7-methyl-octyl}-amide]
114 to 115 °C	COc1ccc(CNC(=O)[C@H](CCC(C)(C)F)C[C@H](O)[C@H](Cc2ccccc2)NC(=O)c2cnc3ccccc3n2)cc1 [Example 236, Quinoxaline-2-carboxylic acid [1(S)-benzyl-7-fluoro-2(S)-hydroxy-4(R)-(4-methoxy-benzylcarbamoyl)-7-methyl-octyl]-amide]
217 to 219 °C	CC(C)(F)CC[C@H](C[C@H](O)[C@H](Cc1ccccc1)NC(=O)c1cnc2ccccc2n1)C(=O)N1CCC[C@H]1CO [Example 239, Quinoxaline-2-carboxylic acid [1(S)-benzyl-7-fluoro-2(S)-hydroxy-4(R)-(2(S)-hydroxymethyl-pyrrolidine-1-carbonyl)-7-methyl-octyl]-amide]
111 to 115 °C	CC(C)(F)CC[C@H](C[C@H](O)[C@H](Cc1ccccc1)NC(=O)c1cnc2ccccc2n1)C(=O)NCC1CCCO1 (stereo partly drawn) [Example 240, Quinoxaline-2-carboxylic acid {1(S)-benzyl-7-fluoro-2(S)-hydroxy-7-methyl-4(R)-[(tetrahydrofuran-2-ylmethyl)-carbamoyl]-octyl}-amide]
99 to 101 °C	COc1cccc(CNC(=O)[C@H](CCC(C)(C)F)C[C@H](O)[C@H](Cc2ccccc2)NC(=O)c2cnc3ccccc3n2)c1OC [Example 242, Quinoxaline-2-carboxylic acid [1(S)-benzyl-4(R)-(2,3-dimethoxy-benzylcarbamoyl)-7-fluoro-2(S)-hydroxy-7-methyl-octyl]-amide]
187 to 189 °C	NC(=O)[C@@H](C[C@H](O)[C@H](Cc1ccccc1)NC(=O)c1cnc2ccccc2n1)C1(O)CCCCC1 [Example 243, Quinoxaline-2-carboxylic acid [1(S)-benzyl-4(S)-carbamoyl-2(S)-hydroxy-4-(1-hydroxy-cyclohexyl)-butyl]-amide]
195 to 198 °C	CC1CC([C@H](C[C@H](O)[C@H](Cc2ccccc2)NC(=O)c2cnc3ccccc3n2)C(N)=O)CC(C)O1 (stereo partly drawn) [Example 244, Quinoxaline-2-carboxylic acid [1(S)-benzyl-4(S)-carbamoyl-4-(2,6-dimethyl-tetrahydro-pyran-4-yl)-2(S)-hydroxy-butyl]-amide]
225 to 227 °C	CC(C)(F)CC[C@H](C[C@H](O)[C@H](Cc1cccc(F)c1)NC(=O)c1cnc2ccccc2n1)C(N)=O [Example 245, Quinoxaline-2-carboxylic acid [4(R)-carbamoyl-7-fluoro-1(S)-(3-fluoro-benzyl)-2(S)-hydroxy-7-methyl-octyl]-amide]
185.5 to 187.5 °C	CC(C)(F)CC[C@H](C[C@H](O)[C@H](Cc1ccc(I)cc1)NC(=O)c1cnc2ccccc2n1)C(N)=O [Example 250, Quinoxaline-2-carboxylic acid [4(R)-carbamoyl-7-fluoro-2(S)-hydroxy-1(S)-(4-iodo-benzyl)-7-methyl-octyl]-amide]
210 to 211 °C	NC(=O)[C@@H](C[C@H](O)[C@H](Cc1ccccc1)NC(=O)c1cnc2ccccc2n1)C1(O)CCCCC1 [Example 260, Quinoxaline-2-carboxylic acid [1(S)-benzyl-4(S)-carbamoyl-2(S)-hydroxy-4-(1-hydroxy-cyclohexyl)-butyl]-amide]
231 °C	NC(=O)[C@@H](C[C@H](O)[C@H](Cc1ccccc1)NC(=O)c1cnc2ccccc2c1)C1CCCCC1 [Example 261, Quinoline-3-carboxylic acid (1(S)-benzyl-4(S)-carbamoyl-4-cyclohexyl-2(S)-hydroxy-butyl)-amide]
208 to 210 °C	NC(=O)[C@@H](C[C@H](O)[C@H](Cc1ccccc1)NC(=O)c1ccc2ccccc2n1)C1CCCCC1 [Example 262, Quinoline-2-carboxylic acid (1(S)-benzyl-4(S)-carbamoyl-4-cyclohexyl-2(S)-hydroxy-butyl)-amide]
159 to 160.5 °C	CC(C)(F)CC[C@H](C[C@H](O)[C@@H](NC(=O)c1cnc2ccccc2n1)c1ccccc1)C(N)=O [Example 266, Quinoxaline-2-carboxylic acid (4(R)-carbamoyl-7-fluoro-2(S)-hydroxy-7-methyl-1(S)-phenyl-octyl)-amide]
206 to 207 °C	NC(=O)[C@H](C[C@H](O)[C@H](Cc1cccs1)NC(=O)c1cnc2ccccc2n1)C1(O)CCCCC1 [Example 268, Quinoxaline-2-carboxylic acid [4(R)-carbamoyl-2(S)-hydroxy-4-(1-hydroxy-cyclohexyl)-1(S)-thiophen-2-ylmethyl-butyl]-amide]
123 to 125 °C	NC(=O)[C@@H](C[C@H](O)[C@H](Cc1ccccc1)NC(=O)c1cnc2ccccc2n1)C1(O)CCSCC1 [Example 269, Quinoxaline-2-carboxylic acid [1(S)-benzyl-4(S)-carbamoyl-2(S)-hydroxy-4-(4-hydroxy-tetrahydro-thiopyran-4-yl)-butyl]-amide]
233 to 235 °C	NC(=O)[C@H](Cc1ccccc1)C[C@H](O)[C@H](Cc1ccccc1)NC(=O)c1cnc2c(F)c(F)ccc2c1 [Example 273, 7,8-Difluoro-quinoline-3-carboxylic acid (1(S)-benzyl-4(R)-carbamoyl-2(S)-hydroxy-5-phenyl-pentyl)-amide]
182 to 185 °C	NC(=O)[C@H](Cc1ccccc1Cl)C[C@H](O)[C@H](Cc1ccccc1)NC(=O)c1cnc2ccccc2n1 [Example 274, Quinoxaline-2-carboxylic acid [1(S)-benzyl-4(R)-carbamoyl-5-(2-chloro-phenyl)-2(S)-hydroxy-pentyl]-amide]
168 to 171 °C	Cc1ccccc1C[C@H](C[C@H](O)[C@H](Cc1ccccc1)NC(=O)c1cnc2ccccc2n1)C(N)=O [Example 275, Quinoxaline-2-carboxylic acid (1(S)-benzyl-4(R)-carbamoyl-2(S)-hydroxy-5-o-tolyl-pentyl)-amide]
190 to 192 °C	O=C(N[C@@H](Cc1ccccc1)[C@@H](O)C[C@@H](Cc1ccccc1)C(=O)NO)c1cnc2ccccc2n1 [Example 276, Quinoxaline-2-carboxylic acid (1(S)-benzyl-2(S)-hydroxy-4(R)-hydroxycarbamoyl-5-phenyl-pentyl)-amide]
192 to 195 °C	NC(=O)[C@@H](C[C@H](O)[C@H](Cc1ccccc1)NC(=O)c1cnc2ccccc2n1)C1(O)CCCC1 [Example 277, Quinoxaline-2-carboxylic acid [1(S)-benzyl-4(S)-carbamoyl-2(S)-hydroxy-4-(1-hydroxy-cyclopentyl)-butyl]-amide]
230 to 233 °C	CC1CCC(O)([C@H](C[C@H](O)[C@H](Cc2ccccc2)NC(=O)c2cnc3ccccc3n2)C(N)=O)CC1 (stereo partly drawn) [Example 278, Quinoxaline-2-carboxylic acid [1(S)-benzyl-4(S)-carbamoyl-2(S)-hydroxy-4-(1-hydroxy-4-methyl-cyclohexyl)-butyl]-amide]
199 to 201 °C	NC(=O)[C@@H](Cc1ccc(Cl)c(Cl)c1)C[C@H](O)[C@H](Cc1ccccc1)NC(=O)c1cnc2ccccc2n1 [Example 279, Quinoxaline-2-carboxylic acid [1(S)-benzyl-4(S)-carbamoyl-5-(3,4-dichloro-phenyl)-2(S)-hydroxy-pentyl]-amide]
171 to 173 °C	NC(=O)[C@H](Cc1ccccc1F)C[C@H](O)[C@H](Cc1ccccc1)NC(=O)c1cnc2ccccc2n1 [Example 280, Quinoxaline-2-carboxylic acid [1(S)-benzyl-4(R)-carbamoyl-5-(2-fluoro-phenyl)-2(S)-hydroxy-pentyl]-amide]
110 to 112 °C	O=C(N[C@@H](Cc1ccccc1)[C@@H](O)C[C@H](C(=O)NO)C1(O)CCCC1)c1cnc2ccccc2n1 [Example 281, Quinoxaline-2-carboxylic acid [1(S)-benzyl-2(S)-hydroxy-4(S)-hydroxycarbamoyl-4-(1-hydroxy-cyclopentyl)-butyl]-amide]
187 to 188 °C	CC1CCC(O)([C@H](C[C@H](O)[C@H](Cc2ccccc2)NC(=O)c2cnc3ccccc3n2)C(N)=O)C1 (stereo partly drawn) [Example 282, Quinoxaline-2-carboxylic acid [1(S)-benzyl-4(S)-carbamoyl-2(S)-hydroxy-4-(1-hydroxy-3-methyl-cyclopentyl)-butyl]-amide]
114 to 116 °C	CC1CCC(O)([C@H](C[C@H](O)[C@H](Cc2ccccc2)NC(=O)c2cnc3ccccc3n2)C(=O)NO)CC1 (stereo partly drawn) [Example 283, Quinoxaline-2-carboxylic acid [1(S)-benzyl-2(S)-hydroxy-4(S)-hydroxycarbamoyl-4-(1-hydroxy-4-methyl-cyclohexyl)-butyl]-amide]
206 to 209 °C	NC(=O)[C@H](Cc1ccccc1)C[C@H](O)[C@H](Cc1ccccc1)NC(=O)c1cnc2c(F)cccc2c1 [Example 285, 8-Fluoro-quinoline-3-carboxylic acid (1(S)-benzyl-4(R)-carbamoyl-2(S)-hydroxy-5-phenyl-pentyl)-amide]
